Reference: patent US7009052B2, “Sulfonamide derivatives” (Warner Lambert Company LLC, priority 2003, dated 2006)
pIC50: −log10 of the molar value.

What follows are compounds tested against T1, androgen receptor (Homo sapiens, UniProt P10275) (assay: AR Antagonist Cell Assay (MMTV-luciferase reporter, DHT-induced)). Settings: MDA-MB453-MMTV clone 54-19 cells, 100 pM DHT, 17 hr.
T1 sequence (P10275 1-920 Q868H): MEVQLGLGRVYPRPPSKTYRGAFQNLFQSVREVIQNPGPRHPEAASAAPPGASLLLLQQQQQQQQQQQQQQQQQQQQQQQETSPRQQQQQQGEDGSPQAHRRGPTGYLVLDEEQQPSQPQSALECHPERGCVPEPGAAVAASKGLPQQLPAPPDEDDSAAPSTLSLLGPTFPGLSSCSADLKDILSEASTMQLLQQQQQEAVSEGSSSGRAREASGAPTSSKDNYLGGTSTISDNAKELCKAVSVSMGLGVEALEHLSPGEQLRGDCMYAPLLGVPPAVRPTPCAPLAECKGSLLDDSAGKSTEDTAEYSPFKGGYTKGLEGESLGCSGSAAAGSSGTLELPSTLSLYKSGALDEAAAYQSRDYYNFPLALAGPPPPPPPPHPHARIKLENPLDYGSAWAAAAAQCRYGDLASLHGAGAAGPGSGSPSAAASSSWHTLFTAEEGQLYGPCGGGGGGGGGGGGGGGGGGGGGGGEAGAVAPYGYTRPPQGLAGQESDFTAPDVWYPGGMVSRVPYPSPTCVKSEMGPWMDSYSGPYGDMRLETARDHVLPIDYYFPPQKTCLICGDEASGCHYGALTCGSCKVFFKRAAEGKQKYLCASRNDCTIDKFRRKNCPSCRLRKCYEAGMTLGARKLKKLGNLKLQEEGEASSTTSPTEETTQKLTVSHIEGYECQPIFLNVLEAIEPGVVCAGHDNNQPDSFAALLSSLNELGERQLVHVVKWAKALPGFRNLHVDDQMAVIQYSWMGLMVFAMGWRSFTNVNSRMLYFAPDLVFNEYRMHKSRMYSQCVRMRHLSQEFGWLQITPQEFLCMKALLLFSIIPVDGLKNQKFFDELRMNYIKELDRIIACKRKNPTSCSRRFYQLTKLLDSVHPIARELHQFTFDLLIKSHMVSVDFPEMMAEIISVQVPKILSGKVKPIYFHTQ
Format: cell-based
Experimental: The compounds ability to antagonize the effects of androgen on the androgen receptor were determined in the protocol described immediately below.
Experimental Procedure for AR Antagonist Cell Assay
Cell line: MDA-MB453-MMTV clone 54-19. This cell line is a stable transfected cell line with MDA-MB453 cell background (human breast tumor cell expressing high level of androgen receptor). A MMTV minimal promoter containing ARE was first cloned in front of a firefly luciferase reporter gene. Then the cascade was cloned into transfection vector pUV120puro. Electroporation method was used for transfecting MDA-MB-453 cell. Puromycin resistant stable cell line was selected.
Cell Culture Media and Reagents:
Culture medium: DMEM (high glucose, Gibco cat #: 11960-044), 10% FBS, and 1% L-glutamine
Plating medium: DMEM (phenol red free), 10% charcoal treated HyClone serum, 1% L-glutamine
Assay medium: DMEM (phenol red free), 1% charcoal treated HyClone serum, 1% L-glutamine, and 1% penicillin/streptomycin
3× luciferase buffer: 2% beta-mercaptoethanol, 0.6% ATP, 0.0135% luciferine in cell lysis buffer
• 1. Cells are maintained in culture medium, splitting cells when they reach 80–90% confluence • 2. To test compounds, 10,000 cells/well are plated to opaque 96 cell culture plate in 100 ul/well plating medium, culture for overnight at 37° C. in cell culture incubator • 3. Carefully remove plating medium, then add 80 ul/well of pre-warmed assay medium, add 10 ul/well testing compound (final concentration at 10 uM or 1 uM), incubate at 37° C. for 30 minutes • 4. Add 10 ul/well freshly prepared DHT (final concentration at 100 pM) to each well, incubate at 37° C. for 17 hr (overnight) • 5. Add 50 ul/well 3× luciferase buffer, incubate at room temperature for 5 minutes, then count on Luminometer The fold induction over background by 100 pM DHT in the absence of testing compounds is standardized as 100% and experimental result is expressed as percentage of inhibition by testing compounds. TABLE3

SMILES | pIC50
Cn1c(=O)cc(C(F)(F)F)c2cc(S(=O)(=O)Nc3cnc4ccccc4c3)ccc21 [Example 33, 1-Methyl-2-oxo-4-trifluoromethyl-1,2-dihydroquinoline-6-sulfonicacid quinolin-3-ylamide] | < 5.00
Cn1c(=O)cc(C(F)(F)F)c2cc(S(=O)(=O)Nc3cccc4cccnc34)ccc21 [Example 34, 1-Methyl-2-oxo-4-trifluoromethyl-1,2-dihydroquinoline-6-sulfonicacid quinolin-8-ylamide] | < 5.00
CSc1n[nH]c(NS(=O)(=O)c2ccc3c(c2)c(C(F)(F)F)cc(=O)n3C)c1C#N [Example 35, 1-Methyl-2-oxo-4-trifluoromethyl-1,2-dihydroquinoline-6-sulfonicacid (4-cyano-5-methylsulfanyl-2H-pyrazol-3-yl)amide] | < 5.00
Cc1cc(=O)oc2cc(NS(=O)(=O)c3ccc4c(c3)c(C(F)(F)F)cc(=O)n4C)ccc12 [Example 40, 1-Methyl-2-oxo-4-trifluoromethyl-1,2-dihydroquinoline-6-sulfonic(4-methyl-2-oxo-2H-chromen-7-yl)amide] | < 5.00
CCOC(=O)Cc1ccc(NS(=O)(=O)c2ccc3c(c2)c(C(F)(F)F)cc(=O)n3C)cc1 [Example 42, [4-(1-Methyl-2-oxo-4-trifluoromethyl-1,2-dihydroquinoline-6-sulfonylamino)phenyl]aceticacid ethyl ester] | < 5.00
Cn1c(=O)cc(C(F)(F)F)c2cc(S(=O)(=O)Nc3cccc(Cc4ccccc4)c3)ccc21 [Example 43, 1-Methyl-2-oxo-4-trifluoromethyl-1,2-dihydroquinoline-6-sulfonicacid (3-benzylphenyl)amide] | < 5.00
Cn1c(=O)cc(C(F)(F)F)c2cc(S(=O)(=O)Nc3cc(C(C)(C)C)cc(C(C)(C)C)c3)ccc21 [Example 45, 1-Methyl-2-oxo-4-trifluoromethyl-1,2-dihydroquinoline-6-sulfonicacid (3,5-di-tert-butylphenyl)amide] | < 5.00
COc1ccc(N(Cc2ccccc2)S(=O)(=O)c2ccc3c(c2)c(C(F)(F)F)cc(=O)n3C)cc1 [Example 46, 1-Methyl-2-oxo-4-trifluoromethyl-1,2-dihydroquinoline-6-sulfonicacid benzyl(4-methoxy-phenyl)amide] | < 5.00

Now those with a higher pIC50, led by results:

pIC50 | SMILES
5.57 | COc1cc(NS(=O)(=O)c2ccc3c(c2)c(C(F)(F)F)cc(=O)n3C)cc(OC)c1 [Example 36, 1-Methyl-2-oxo-4-trifluoromethyl-1,2-dihydroquinoline-6-sulfonicacid (3,5-dimethoxyphenyl)-amide]
5.21 | CC(C)Oc1cccc(NS(=O)(=O)c2ccc3c(c2)c(C(F)(F)F)cc(=O)n3C)c1 [Example 37, 1-Methyl-2-oxo-4-trifluoromethyl-1,2-dihydroquinoline-6-sulfonicacid (3-isopropoxyphenyl)-amide]
5.25 | Cn1c(=O)cc(C(F)(F)F)c2cc(S(=O)(=O)Nc3cccc(OC(F)F)c3)ccc21 [Example 38, 1-Methyl-2-oxo-4-trifluoromethyl-1,2-dihydroquinoline-6-sulfonicacid (3-difluoromethoxy-phenyl)amide]
6.03 | Cn1c(=O)cc(C(F)(F)F)c2cc(S(=O)(=O)Nc3cccc(C(F)(F)F)c3)ccc21 [Example 39, 1-Methyl-2-oxo-4-trifluoromethyl-1,2-dihydroquinoline-6-sulfonicacid (3-trifluoromethylphenyl)-amide]
5.41 | Cn1c(=O)cc(C(F)(F)F)c2cc(S(=O)(=O)Nc3cccc(OC(F)(F)F)c3)ccc21 [Example 41, 1-Methyl-2-oxo-4-trifluoromethyl-1,2-dihydroquinoline-6-sulfonicacid (3-trifluoromethoxy-phenyl)amide]
5.42 | CCOc1ccc(NS(=O)(=O)c2ccc3c(c2)c(C(F)(F)F)cc(=O)n3C)cc1 [Example 44, 1-Methyl-2-oxo-4-trifluoromethyl-1,2-dihydroquinoline-6-sulfonicacid (4-ethoxyphenyl)amide]
